According to patent US9730679B1, “Device for sterile uterine sampling and drug delivery” (University of South Florida, priority 2012, dated 2017):
In brackets after ≈: the same amount, converted by molar mass.

Columns and labels:
[1] = tested on: Escherichia coli (ATCC 25922); assay: Minimum inhibitory concentration, visual turbidimetric method with OD600 of MIC tubes; format: cell-based; details: ATCC25922, 4 h, E. coli, four hours incubation at 37° C., read-out: minimum inhibitory doxycycline concentration, MIC
Protocol: To determine the antibacterial activity of the doxycycline-loaded chitosan nanoparticles, minimum inhibitory concentrations (MICs) and minimum bactericidal concentrations (MBCs) were evaluated. The procedures for both assays were adopted from Lee et al. (Blanchet […]. Forward Selection of Explanatory Variables. Ecology. 2008; 89:2623-2632). MIC is the lowest concentration of DCNPs that inhibits bacterial growth. For the analyses, a visual turbidimetric method was used. Freshly prepared nanoparticles, blank and drug-loaded, were UV-sterilized for ten minutes. […] A 500 μL aliquot of this solution with sterilized particles was added to a tube containing Luria-Bertani (LB) broth for a total volume of 2 mL. A serial dilution, with a dilution factor of 0.3, was performed for the remaining six tubes. A parallel series of experiments was also run using unencapsulated doxycycline. Under sterile conditions, the tubes containing particles were inoculated with 1.0×10^5 colony-forming units (CFUs)/mL of Escherichia coli cells in LB broth, then incubated at 37° C. under agitation for four hours. Following the incubation, the tubes were assessed visually for the appearance of turbidity (i.e., bacterial growth). […] All MIC tubes were analyzed to assess the amount of bacteria present by measuring optical density of the suspension at 600 nm (OD600) and then calculating the number of bacterial cells present.

[2] = tested on: normal human ovarian surface epithelial (OSE) cells; format: cell-based; details: 5 days
Protocol: Cytotoxicity of the DCNPs was determined by treating normal human ovarian surface epithelial (OSE) cells with different concentrations of doxycycline-loaded nanoparticles, then monitoring cell viability over the next five days. The OSE cells were cultured for 4 to 7 days in flasks containing medium199/MCDB105 media supplemented with 10% fetal bovine serum. The cells were removed from the flasks and counted, and then 100 μL of medium containing cells was added to the wells of a 96-well plate to give final cell concentrations of 5×10^2, 1.0×10^3, or 2.0×10^3 cells/mL. After 24 hours incubation at 37° C., the cells were treated with blank nanoparticles, DCNP4 (1 and 2 μg/mL), DCNP6 (1 and 2 μg/mL), or unencapsulated doxycycline (1 and 2 μg/mL). The plate was then incubated at 37° C. Bright microscopy was used to examine the cell morphology after treatment just before the assessing for cytotoxicity. Cytotoxicity was assessed on days 1, 3, and 5 by WST-1 assay. WST-1 assay reagent (10 μL) was added to each well, followed by incubation for another 4 hours at 37° C. and then spectrophotometric assessment of cell viability. […] This dye was quantified using a Biotex Synergy multiplate reader to measure absorbance at 450 nm (reference wavelength was 630 nm). All treatments were assayed in triplicate (n=3) and calculated according to equation 5: […]

With `C[C@H]1c2cccc(O)c2C(=O)C2=C(O)[C@]3(O)C(=O)C(C(N)=O)=C(O)[C@@H](N(C)C)[C@@H]3[C@@H](O)[C@@H]21` [Doxy, Doxycycline] the MIC [1] was 13 µg/mL (≈ 29.3 µM) and the “decrease in cell viability” value [2] was 61%.
